Experiments:
[1] = target: Beta-lactamase (Acinetobacter baumannii) (UniProt Q8RLA6); conditions: S-4
Acinetobacter baumannii [2] = assay: Antibacterial activity against extended-spectrum b-lactamase producing Acinetobacter baumannii NCTC 13305 incubated for 16 to 20 hrs by CLSI method; format: functional
[3] = target: Beta-lactamase (Acinetobacter baumannii) (UniProt Q8RLA6); conditions: S-15
[4] = target: Beta-lactamase (Acinetobacter baumannii) (UniProt Q8RLA6); conditions: NCTC 13301
[5] = target: Beta-lactamase (Acinetobacter baumannii) (UniProt Q8RLA6); conditions: S-10
[6] = target: Beta-lactamase (Acinetobacter baumannii) (UniProt Q8RLA6); conditions: S-10; remark: listed apart in the source
[7] = target: Beta-lactamase (Acinetobacter baumannii) (UniProt Q8RLA6); conditions: S-10; remark: listed apart in the source
[8] = target: Beta-lactamase (Acinetobacter baumannii) (UniProt Q8RLA6); conditions: NCTC 13305
[9] = target: Beta-lactamase (Acinetobacter baumannii) (UniProt Q8RLA6); conditions: NCTC 13305; remark: listed apart in the source
Acinetobacter baumannii [10] = assay: Antibacterial activity against extended-spectrum b-lactamase producing Acinetobacter baumannii S-8 incubated for 16 to 20 hrs by CLSI method; format: functional
[11] = target: Beta-lactamase (Acinetobacter baumannii) (UniProt Q8RLA6); conditions: S-8
[12] = target: Beta-lactamase (Acinetobacter baumannii) (UniProt Q8RLA6); assay: Inhibition of beta-lactamase in extended-spectrum b-lactamase producing Acinetobacter baumannii NCTC 13301 assessed as potentiation of cefepime-induced antibacterial activity by measuring cefepime MIC at 4 to 8 ug/ml incubated for 16 to 20 hrs by CLSI method
[13] = target: Beta-lactamase (Acinetobacter baumannii) (UniProt Q8RLA6); conditions: S-15; remark: listed apart in the source
[14] = target: Beta-lactamase (Acinetobacter baumannii) (UniProt Q8RLA6); conditions: S-4; remark: listed apart in the source
[15] = target: Beta-lactamase (Acinetobacter baumannii) (UniProt Q8RLA6); conditions: NCTC 13304
Acinetobacter baumannii [16] = assay: Antibacterial activity against extended-spectrum b-lactamase producing Acinetobacter baumannii NCTC 13304 incubated for 16 to 20 hrs by CLSI method; format: functional
Acinetobacter baumannii [17] = assay: Antibacterial activity against extended-spectrum b-lactamase producing Acinetobacter baumannii S-4 incubated for 16 to 20 hrs by CLSI method; format: functional
[18] = target: Beta-lactamase (Acinetobacter baumannii) (UniProt Q8RLA6); conditions: S-10; remark: listed apart in the source
[19] = target: Beta-lactamase (Acinetobacter baumannii) (UniProt Q8RLA6); conditions: S-3
[20] = target: Beta-lactamase (Acinetobacter baumannii) (UniProt Q8RLA6); conditions: S-3; remark: listed apart in the source
[21] = target: Beta-lactamase (Acinetobacter baumannii) (UniProt Q8RLA6); conditions: NCTC 13301; remark: listed apart in the source
[22] = target: Beta-lactamase (Acinetobacter baumannii) (UniProt Q8RLA6); conditions: NCTC 13304; remark: listed apart in the source
[23] = target: Beta-lactamase (Acinetobacter baumannii) (UniProt Q8RLA6); conditions: S-8; remark: listed apart in the source
[24] = target: Beta-lactamase (Acinetobacter baumannii) (UniProt Q8RLA6); conditions: NCTC 13301; remark: listed apart in the source
[25] = target: Beta-lactamase (Acinetobacter baumannii) (UniProt Q8RLA6); conditions: S-15; remark: listed apart in the source
Acinetobacter baumannii [26] = assay: Antibacterial activity against extended-spectrum b-lactamase producing Acinetobacter baumannii S-15 incubated for 16 to 20 hrs by CLSI method; format: functional
[27] = target: Beta-lactamase (Acinetobacter baumannii) (UniProt Q8RLA6); assay: Inhibition of beta-lactamase in extended-spectrum b-lactamase producing Acinetobacter baumannii NCTC 13301 assessed as potentiation of cefpirome-induced antibacterial activity by measuring cefpirome MIC at 4 to 8 ug/ml incubated for 16 to 20 hrs by CLSI method
[28] = target: Beta-lactamase (Acinetobacter baumannii) (UniProt Q8RLA6); conditions: S-3; remark: listed apart in the source
[29] = target: Beta-lactamase (Acinetobacter baumannii) (UniProt Q8RLA6); conditions: NCTC 13305; remark: listed apart in the source
Acinetobacter baumannii [30] = assay: Antibacterial activity against extended-spectrum b-lactamase producing Acinetobacter baumannii S-3 incubated for 16 to 20 hrs by CLSI method; format: functional
[31] = target: Beta-lactamase (Acinetobacter baumannii) (UniProt Q8RLA6); conditions: S-8; remark: listed apart in the source
[32] = target: Beta-lactamase (Acinetobacter baumannii) (UniProt Q8RLA6); conditions: S-3; remark: listed apart in the source
[33] = target: Beta-lactamase (Acinetobacter baumannii) (UniProt Q8RLA6); assay: Inhibition of beta-lactamase in extended-spectrum b-lactamase producing Acinetobacter baumannii S-3 assessed as potentiation of cefpirome-induced antibacterial activity by measuring cefpirome MIC at 4 to 8 ug/ml incubated for 16 to 20 hrs by CLSI method
[34] = target: Beta-lactamase (Acinetobacter baumannii) (UniProt Q8RLA6); conditions: NCTC 13304; remark: listed apart in the source
[35] = target: Beta-lactamase (Acinetobacter baumannii) (UniProt Q8RLA6); conditions: S-8; remark: listed apart in the source
[36] = target: Beta-lactamase (Acinetobacter baumannii) (UniProt Q8RLA6); conditions: NCTC 13305; remark: listed apart in the source
[37] = target: Beta-lactamase (Acinetobacter baumannii) (UniProt Q8RLA6); conditions: S-4; remark: listed apart in the source
[38] = target: Beta-lactamase (Acinetobacter baumannii) (UniProt Q8RLA6); conditions: S-4; remark: listed apart in the source
[39] = target: Beta-lactamase (Acinetobacter baumannii) (UniProt Q8RLA6); assay: Inhibition of beta-lactamase in extended-spectrum b-lactamase producing Acinetobacter baumannii S-4 assessed as potentiation of cefepime-induced antibacterial activity by measuring cefepime MIC at 4 to 8 ug/ml incubated for 16 to 20 hrs by CLSI method
[40] = target: Beta-lactamase (Acinetobacter baumannii) (UniProt Q8RLA6); conditions: S-10; remark: listed apart in the source
[41] = target: Beta-lactamase (Acinetobacter baumannii) (UniProt Q8RLA6); conditions: S-3; remark: listed apart in the source
[42] = target: Beta-lactamase (Acinetobacter baumannii) (UniProt Q8RLA6); conditions: NCTC 13304; remark: listed apart in the source
[43] = target: Beta-lactamase (Acinetobacter baumannii) (UniProt Q8RLA6); conditions: NCTC 13304; remark: listed apart in the source
[44] = target: Beta-lactamase (Acinetobacter baumannii) (UniProt Q8RLA6); conditions: S-10; remark: listed apart in the source
[45] = target: Beta-lactamase (Acinetobacter baumannii) (UniProt Q8RLA6); assay: Inhibition of beta-lactamase in extended-spectrum b-lactamase producing Acinetobacter baumannii S-3 assessed as potentiation of cefepime-induced antibacterial activity by measuring cefepime MIC at 4 to 8 ug/ml incubated for 16 to 20 hrs by CLSI method
[46] = target: Beta-lactamase (Acinetobacter baumannii) (UniProt Q8RLA6); conditions: NCTC 13304; remark: listed apart in the source
[47] = target: Beta-lactamase (Acinetobacter baumannii) (UniProt Q8RLA6); conditions: S-15; remark: listed apart in the source
[48] = target: Beta-lactamase (Acinetobacter baumannii) (UniProt Q8RLA6); conditions: NCTC 13301; remark: listed apart in the source
[49] = target: Beta-lactamase (Acinetobacter baumannii) (UniProt Q8RLA6); conditions: S-4; remark: listed apart in the source
[50] = target: Beta-lactamase (Acinetobacter baumannii) (UniProt Q8RLA6); conditions: NCTC 13301; remark: listed apart in the source
[51] = target: Beta-lactamase (Acinetobacter baumannii) (UniProt Q8RLA6); conditions: NCTC 13304; remark: listed apart in the source
[52] = target: Beta-lactamase (Acinetobacter baumannii) (UniProt Q8RLA6); conditions: S-4; remark: listed apart in the source
[53] = target: Beta-lactamase (Acinetobacter baumannii) (UniProt Q8RLA6); conditions: S-3; remark: listed apart in the source
[54] = target: Beta-lactamase (Acinetobacter baumannii) (UniProt Q8RLA6); conditions: NCTC 13305; remark: listed apart in the source
[55] = target: Beta-lactamase (Acinetobacter baumannii) (UniProt Q8RLA6); conditions: S-8; remark: listed apart in the source
[56] = target: Beta-lactamase (Acinetobacter baumannii) (UniProt Q8RLA6); conditions: S-15; remark: listed apart in the source
[57] = target: Beta-lactamase (Acinetobacter baumannii) (UniProt Q8RLA6); conditions: NCTC 13301; remark: listed apart in the source
[58] = target: Beta-lactamase (Acinetobacter baumannii) (UniProt Q8RLA6); conditions: NCTC 13305; remark: listed apart in the source
[59] = target: Beta-lactamase (Acinetobacter baumannii) (UniProt Q8RLA6); conditions: NCTC 13301; remark: listed apart in the source
[60] = target: Beta-lactamase (Acinetobacter baumannii) (UniProt Q8RLA6); conditions: NCTC 13305; remark: listed apart in the source
Acinetobacter baumannii [61] = assay: Antibacterial activity against extended-spectrum b-lactamase producing Acinetobacter baumannii S-10 incubated for 16 to 20 hrs by CLSI method; format: functional
[62] = target: Beta-lactamase (Acinetobacter baumannii) (UniProt Q8RLA6); conditions: NCTC 13305; remark: listed apart in the source
Acinetobacter baumannii [63] = assay: Antibacterial activity against extended-spectrum b-lactamase producing Acinetobacter baumannii NCTC 13301 incubated for 16 to 20 hrs by CLSI method; format: functional
[64] = target: Beta-lactamase (Acinetobacter baumannii) (UniProt Q8RLA6); assay: Inhibition of beta-lactamase in extended-spectrum b-lactamase producing Acinetobacter baumannii S-4 assessed as potentiation of cefpirome-induced antibacterial activity by measuring cefpirome MIC at 4 to 8 ug/ml incubated for 16 to 20 hrs by CLSI method
[65] = target: Beta-lactamase (Acinetobacter baumannii) (UniProt Q8RLA6); conditions: S-15; remark: listed apart in the source
[66] = target: Beta-lactamase (Acinetobacter baumannii) (UniProt Q8RLA6); conditions: NCTC 13301; remark: listed apart in the source
[67] = target: Beta-lactamase (Acinetobacter baumannii) (UniProt Q8RLA6); conditions: S-8; remark: listed apart in the source
[68] = target: Beta-lactamase (Acinetobacter baumannii) (UniProt Q8RLA6); conditions: NCTC 13304; remark: listed apart in the source

Measured: MIC

Beta-lactamase (Acinetobacter baumannii), sequence (Q8RLA6 as listed by the source): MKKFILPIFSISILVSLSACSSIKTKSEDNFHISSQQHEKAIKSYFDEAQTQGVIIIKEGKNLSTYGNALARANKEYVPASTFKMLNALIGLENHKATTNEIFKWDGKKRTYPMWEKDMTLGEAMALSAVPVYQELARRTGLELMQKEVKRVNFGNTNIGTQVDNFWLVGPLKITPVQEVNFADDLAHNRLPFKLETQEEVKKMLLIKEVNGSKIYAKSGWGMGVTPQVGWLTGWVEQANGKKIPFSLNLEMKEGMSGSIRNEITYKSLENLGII

NC(=O)[C@@H]1CC[C@@H]2CN1C(=O)N2OS(=O)(=O)O
0.5 µg/mL: [1] | [3] | [11] | [14] | [23] | [25] | [35] | [41] | [53] | [55]
8 µg/mL: [7] | [31] | [44] | [56] | [65] | [67]
32 µg/mL: [33] | [39] | [45] | [64]
> 64 µg/mL: Acinetobacter baumannii [2] | Acinetobacter baumannii [10] | Acinetobacter baumannii [16] | Acinetobacter baumannii [17] | Acinetobacter baumannii [26] | Acinetobacter baumannii [30] | Acinetobacter baumannii [61] | Acinetobacter baumannii [63]
> 32 µg/mL: [12] | [27]
0.12 µg/mL: [13] | [47]
4 µg/mL: [28] | [32] | [37] | [49]
< 0.06 µg/mL: [4] | [8] | [9] | [15] | [21] | [22] | [24] | [29] | [34] | [36] | [42] | [43] | [46] | [48] | [50] | [51] | [54] | [57] | [58] | [59] | [60] | [62] | [66] | [68]
< 0.03 µg/mL: [5] | [6] | [18] | [40]
1 µg/mL: [19] | [20] | [38] | [52]

From ChEMBL document CHEMBL3882388, “Pharmaceutical Compositions Comprising Beta-Lactam Antibiotic, Sulbactam and Beta-Lactamase Inhibitor” (2014)
